According to US20100120690A1, “Polypeptides Having Antimicrobial Activity and Polynucleotides Encoding Same” (Novozymes Adenium Biotech A/S, priority 2005, published 2010):

Tests used:
[1] = system: panel of 6 different strains of Staphylococcus aureus; test: Average MIC, NCCLS/CLSI guidelines using caMHB (Example 6); type: cell-based; conditions: average over 6 S. aureus strains, duplicate; MIC above 32 counted as 64; read after 18-24 hours at 37° C.
In short: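 Six Staphylococcus aureus strains, MSSA and MRSA, were exposed in duplicate to peptide dilutions from 32 down to 0.03 microgram/mL in caMHB following CLSI guidance. Growth was scored after 18-24 h incubation at 37° C. The tabulated value is the mean MIC, with 64 used for any MIC >32 micrograms/mL.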

S. aureus = test: Minimal Inhibitory Concentration, NCCLS guidelines (Example 4); type: cell-based, Staphylococcus aureus; conditions: purified peptide
Method: The Minimal Inhibitory Concentration (MIC, micrograms/mL) was determined to test for their antimicrobial activity following the NCCLS guidelines (Clinical and Laboratory Standards Institute; formerly known as National Committee for Clinical and Laboratory Standards).

B. subtilis = test: Minimal Effective Concentration (MEC) assay; type: cell-based, Bacillus subtilis
Method: (§1) Three antimicrobial polypeptides, which are variants of SEQ ID NO: 1, were tested for antimicrobial activity. A Minimal Effective Concentration assay (MEC, expressed as micrograms/mL) against different microorganisms was performed using the three plectasin mutants, Y40YR, N17R and Y25R following the protocol described in the book of Methods in Molecular Biology, Vol. 78, Antibacterial peptide protocol William M. Shafer, Human Press.

M. luteus = test: Minimal Effective Concentration (MEC) assay; type: cell-based, Micrococcus luteus
Method: as §1

[2] = system: Staphylococcus aureus, ATCC 25923; test: MIC, NCCLS/CLSI guidelines (Example 5), strain B; type: cell-based; conditions: average of two independent experiments
In short: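 Recombinant plectasin variants, expressed and purified; MIC per NCCLS/CLSI; n=2 independent expts, averaged; reported as category vs wild-type MIC (0 >100%, 1 80-100%, 2 50-80%, 3 <50%).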

[3] = system: Staphylococcus carnosus ATCC51365; test: Yeast screening assay: radial diffusion assay of yeast supernatants; type: cell-based; parameters: key: An activity of 3 is better than Plectasin; An activity of 2 corresponds to the activity of Plectasin; 1 is worse than Plectasin; conditions: yeast supernatant, clearing zone in radial diffusion assay
In short: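 Activity scores (1 worse, 2 equal, 3 better than wild-type plectasin) come from the size of the radial-diffusion clearing zone against S. carnosus at 5×10^5 cfu/mL. Test samples were culture supernatants of yeast transformants induced with galactose for 3 days at 30 °C, and plates were developed at 37 °C with MTT.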

[4] = system: Staphylococcus aureus, MRSA ST5 (2001); test: MIC, NCCLS/CLSI guidelines (Example 5), strain D; type: cell-based; conditions: average of two independent experiments
In short: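 Relative MIC category versus wild-type plectasin (0 >100%, 1 80-100%, 2 50-80%, 3 <50%), mean of two experiments. Determined per CLSI broth guidelines with expressed, purified peptides.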

Sequence: GFGCNGPWDEDDMQCHNHCKSIKGYKGGYCAKGGFVCKCY (listed as Pseudoplectania nigrella) [wildtype, wildtype plectasin, parent antimicrobial polypeptide, reference compound]
- Average MIC [1]: 14 micrograms/mL
- MIC against S. aureus (S. aureus): 8 micrograms/mL
- MEC against B. subtilis (B. subtilis): 0.09 micrograms/mL
- MEC against M. luteus (M. luteus): 1.89 micrograms/mL
- MIC, strain B [2]: (22 μg/mL)
- Relative MIC, strain B ([2]; relative to wildtype Plectasin): 1 (80-100% of Plectasin wildtype MIC)
- Activity (antimicrobial activity relative to the activity of plectasin) [3]: 2
- MIC, strain D [4]: (15 μg/mL)
- Relative MIC, strain D ([4]; relative to wildtype Plectasin): 1 (80-100% of Plectasin wildtype MIC)
